# Test: passive permeability, PAMPA, ADME assay (AID 1508612)
# Conditions: pH 7.4, 30.0 min, 50.0 µM
row,Compound,Papp
1,COC(=O)c1nc(-c2cccc3ccccc23)oc1OC,939 ×10⁻⁶ cm/s
2,COc1ccc(-n2nc(C3CCCN(C(=O)Cc4ccccn4)C3)[nH]c2=O)cc1 (centres undefined),106 ×10⁻⁶ cm/s
3,COc1cc(NC(=O)c2nc3ccccc3n(C)c2=O)cc(OC)c1OC,145 ×10⁻⁶ cm/s
4,CC(C)=CCNc1ncnc2nc[nH]c12,54.1 ×10⁻⁶ cm/s
5,Cc1cc(C)cc(C(=O)Nc2ccc3c(N4CCCC4)ncnc3c2)c1,> 1000 ×10⁻⁶ cm/s
6,c1ccc(-c2nc(N3CCCCCC3)c3ccccc3n2)nc1,> 1000 ×10⁻⁶ cm/s
7,O=C(Nc1ccc(Oc2ccnc3[nH]ccc23)c(F)c1)c1cccn(-c2ccc(F)cc2)c1=O,407 ×10⁻⁶ cm/s
8,Fc1ccc(Cc2nc3nccc(-c4cccs4)n3n2)cc1,> 1000 ×10⁻⁶ cm/s
9,CC(C)(C)c1ccc(S(=O)(=O)c2cnc(SCC(=O)Nc3ccc(F)c(Cl)c3)[nH]c2=O)cc1,6.49 ×10⁻⁶ cm/s
10,COc1cccc(C(=O)Nc2ccc([S+](=O)([O-])Nc3nccs3)cc2)c1O,3.5 ×10⁻⁶ cm/s
11,O=S(=O)(Nc1nccs1)c1ccc(NCc2cc(F)ccc2O)cc1,8.23 ×10⁻⁶ cm/s
12,C#CCNC(=O)c1nc(-c2ccc([S+](C)(=O)[O-])cc2)c2ccccn12,545 ×10⁻⁶ cm/s
13,NC(=O)C1CCN(c2nc(-c3ccc4c(c3)OCCO4)cs2)CC1,669 ×10⁻⁶ cm/s
14,Cc1ccc(S(=O)(=O)Nc2ccncc2C(=O)Nc2nc(-c3ccccc3)cs2)cc1,< 1 ×10⁻⁶ cm/s
15,CNc1cc(-c2nc(Nc3ccc(F)c(F)c3)c3ccccc3n2)ccn1,257 ×10⁻⁶ cm/s
16,COc1ccc(Nc2nnc(-c3ccc(C)c(S(=O)(=O)NCc4nc5ccccc5[nH]4)c3)c3ccccc23)cc1,11.9 ×10⁻⁶ cm/s
17,COc1cc2c(cc1OC)C(C[C@H]1CN(S(=O)(=O)c3cccc(C#N)c3)CC[C@H]1CC(=O)O)=NCC2,3.25 ×10⁻⁶ cm/s
18,COc1ccccc1-c1nc(NCc2ccc(-c3cccnc3)cc2)c2ccccc2n1,980 ×10⁻⁶ cm/s
19,c1cc(-c2cc(-c3ccncc3)c3cncn3c2)c2[nH]ccc2c1,157 ×10⁻⁶ cm/s
20,O=c1[nH]c(C2CCN(CC3CCCCC3)CC2)nn1Cc1ccccc1,< 1 ×10⁻⁶ cm/s

row,Compound,Papp
1,Cc1ccc(CSCc2ccc(C(=O)NC3CC3)o2)cc1,833 ×10⁻⁶ cm/s
2,Cc1ccc2c(c1)/C(=C\c1cc(Cl)c(O)c(Cl)c1)C(=O)N2,97.5 ×10⁻⁶ cm/s
3,Fc1cccc(Nc2nc(-c3ccncc3)nc3ccccc23)c1F,799 ×10⁻⁶ cm/s
4,Cc1cccc(S(=O)(=O)Nc2cnccc2C(=O)Nc2nc(-c3ccccc3)cs2)c1,860 ×10⁻⁶ cm/s
5,NC(=O)COCCN1CCN(C(c2ccccc2)c2ccc(Cl)cc2)CC1 (centres undefined),359 ×10⁻⁶ cm/s
6,Cc1nc2sccn2c(=O)c1S(=O)(=O)Nc1ccc(N2CCN(S(C)(=O)=O)CC2)cc1,209 ×10⁻⁶ cm/s
7,Fc1ccc(CN2CCOC[C@H]2c2ncc(-c3ccc(Cl)s3)[nH]2)cc1,> 1000 ×10⁻⁶ cm/s
8,O=c1c(O)c(-c2ccc(O)cc2)oc2cc(O)cc(O)c12,46.6 ×10⁻⁶ cm/s
9,Cc1cn(-c2cc(NC(=O)c3ccc(C)c(Nc4nccc(-c5cccnc5)n4)c3)cc(C(F)(F)F)c2)cn1,676 ×10⁻⁶ cm/s
10,NC(=O)C1CCN(c2nc(-c3ccc4c(c3)CCO4)cs2)CC1,> 1000 ×10⁻⁶ cm/s
11,Cn1ccc2cc(-c3csc(N4CCC(C(N)=O)CC4)n3)ccc21,823 ×10⁻⁶ cm/s
12,O=C(Nc1ccc(S(=O)(=O)Nc2nccs2)cc1)c1cccc2ccccc12,11.9 ×10⁻⁶ cm/s
13,O=C1C(SCCO)=C(SCCO)C(=O)c2ccccc21,108 ×10⁻⁶ cm/s
14,Cc1cccc(S(=O)(=O)c2cn(Cc3ccccc3)c3cc(N4CCCC(C)C4)c(F)cc3c2=O)c1 (centres undefined),> 1000 ×10⁻⁶ cm/s
15,COC(=O)c1ccc([C@H]2c3[nH]c4ccccc4c3C[C@H](C(=O)OC)N2C(=O)CCl)cc1,> 1000 ×10⁻⁶ cm/s
16,Cc1sc2c(c1C)C(c1ccc(Cl)cc1)=N[C@H](CC(=O)NCCCCNC(=O)COc1cccc3c1C(=O)N([C@H]1CCC(=O)NC1=O)C3=O)c1nnc(C)n1-2,< 1 ×10⁻⁶ cm/s
17,C#CCNC(=O)c1nc(-c2cccnc2)c2ccccn12,507 ×10⁻⁶ cm/s
18,O=C(NCCc1cnc[nH]1)c1ccc(-c2ncc3cnc(-c4cccc(F)c4)cn23)cc1,< 1 ×10⁻⁶ cm/s
19,COc1ccc(S(=O)(=O)Nc2cnccc2C(=O)Nc2nc(-c3ccccc3)cs2)cc1,675 ×10⁻⁶ cm/s
20,COc1cccc(-c2nc(-c3c(C)noc3C)cc3[nH]c(C)cc23)c1OC,> 1000 ×10⁻⁶ cm/s

row,Compound,Papp
1,CNc1oc(-c2ccccc2-c2ccccc2)nc1C#N,906 ×10⁻⁶ cm/s
2,COc1ccc(-n2nc(C3CCCN(C(=O)c4ccccc4)C3)[nH]c2=O)cc1 (centres undefined),< 1 ×10⁻⁶ cm/s
3,Cn1ncnc1[C@H]1c2n[nH]c(=O)c3cc(F)cc(c23)N[C@@H]1c1ccc(F)cc1,60.5 ×10⁻⁶ cm/s
4,Oc1ccc(-c2nc(C3CC3)nc3c2CCN(CC2CCCCC2)CC3)cc1,> 1000 ×10⁻⁶ cm/s
5,COc1cc(Cl)c(C)cc1Nc1c2c(nc3ccccc13)CCC2,> 1000 ×10⁻⁶ cm/s
6,O=C(Cc1ccc(Cl)c(Cl)c1)Nc1ccc(S(=O)(=O)Nc2cncnc2)cc1,1.5 ×10⁻⁶ cm/s
7,Cc1noc(C)c1-c1ccc(-c2cc(C(N)=O)c(NC(N)=O)s2)c(O[C@H]2CCNC2)c1,< 1 ×10⁻⁶ cm/s
8,Cc1ccc(-n2nc3c(=O)n(CCCC(=O)NCc4ccc(F)cc4)nc(C)c3c2C)cc1,842 ×10⁻⁶ cm/s
9,O=c1cc(CSc2ccc(Cl)cc2)nc(-c2ccccn2)[nH]1,> 1000 ×10⁻⁶ cm/s
10,COc1ccc(-n2nc(C3CCCN(C(=O)C4CC4)C3)[nH]c2=O)cc1 (centres undefined),113 ×10⁻⁶ cm/s
11,O=C(CCCN1CCC(O)(c2cccc(C(F)(F)F)c2)CC1)c1ccc(F)cc1,> 1000 ×10⁻⁶ cm/s
12,COc1ccnc(NC(=S)N2CCN(c3ncc(C(F)(F)F)cc3Cl)CC2)c1,> 1000 ×10⁻⁶ cm/s
13,O=C(Nc1ccccc1O)c1ccc(NC(=O)C2CC2)cc1,117 ×10⁻⁶ cm/s
14,CC(C)c1ccc2oc3nc(N)c(C(=O)O)cc3c(=O)c2c1,9.71 ×10⁻⁶ cm/s
15,Cc1ccc(Nc2nc(-c3ccncc3)nc3ccccc23)cc1F,15.5 ×10⁻⁶ cm/s
16,CCN1CCN(c2ccc3cc(S(=O)(=O)N4CCOCC4)ccc3n2)CC1,> 1000 ×10⁻⁶ cm/s
17,CC1CN(c2ccc(Nc3nc(-c4ccncc4)nc4ccccc34)cc2F)CC(C)O1 (centres undefined),> 1000 ×10⁻⁶ cm/s
18,Fc1cc(Nc2nc(-c3ccncc3)nc3ccccc23)ccc1-c1cn[nH]c1,36.1 ×10⁻⁶ cm/s
19,O=C(O)CNC(=O)c1c(O)c2ccccc2n(Cc2ccccc2)c1=O,14.6 ×10⁻⁶ cm/s

# Source: PubChem BioAssay AID1508612
